In patent US10994016B2, “Graphene oxide mediated cellular delivery of gadolinium-labeled molecules” (Northwestern University, priority 2015, dated 2021):
Where two headings read alike, the source gives them in different places.

Legend:
HeLa cells [1] = experiment: 24 hour cytotoxicity assay (Guava ViaCount); assay type: cell-based; conditions: for IC50: read-out: IC50 (viability)
Experimental: FIG. 11. 24 hour cytotoxicity assay using HeLa cells at increasing Magnevist and GO concentrations. […] The maximum GO dose required for cellular delivery enhancement is 20 μg/mL, or an order of magnitude below the highest test dose. The 150 nm GO was used for the study.
FIGS. 12A-B. Cytotoxicity of Magnevist. A) Viability of HeLa cells at increasing Magnevist concentration as measured by the Guava ViaCount Assay. Analysis includes floating cells at the end of the 24-hr incubation period. The fitted IC50 was 80 mM. […] Fitting was performed using GraphPad Prism software. All incubations were performed for 24 hours. Error bars show SD.
Cell counting was conducted using a Guava EasyCyte Mini Personal Cell Analyzer (EMD Millipore, Billerica, Mass.). After cell harvesting, an aliquot (50 μL) of the cell suspensions was mixed with Guava ViaCount reagent (150 μL) and allowed to stain at room temperature for at least 5 minutes. The dilution factor of 4 was determined based upon optimum machine performance (20-150 cells/μL). After vortexing for 10 sec, stained cells were counted using a Guava EasyCyte Mini Personal Cell Analyzer (PCA) using the ViaCount software module. For each sample, 1000 events were acquired. Gating of live/dead and cell/debris classifications were performed manually by the operator.

HeLa cells [2] = experiment: Cell MR imaging of Magnevist-labeled cells in agarose phantoms (6-well labeling, Gd content by ICP-MS, 7 T); assay type: cell-based; conditions: for Labeling achieved in the imaging study: after centrifugation; for Sensitivity for labeled cells on T1-weighted MRI: 7T
Experimental: HeLa cells were labeled by Magnevist with and without 150 nm GO co-incubation in 6-well plates. 2 plates seeded at 300,000 cells per well were needed to produce a sufficient number of cells for imaging. For the condition of GO co-incubation, 4500 μL of Magnevist-GO mixture was prepared at a concentration of 93.3 mM Magnevist and 27 μg/mL GO. The mixture was allowed to adsorb for at least 15 minutes. 375 μL of the Magnevist-GO mixture was added to 625 μL of media in each well to reach a final concentration of 35 mM Magnevist and 10 μg/mL GO. The cells were incubated with the mixture for […]. To harvest, cells were rinsed in-plate three times with 3000 μL PBS and trypsinized using 400 μL 0.25% TrypLE. After 5 minutes of incubation at 37° C., 600 μL of media was added to each well and mixed by a pipette to ensure that all cells were lifted into suspension. After combining all the wells into a 12 mL cell suspension, 3 aliquots of 25 μL each were obtained for cell counting by Guava. 175 μL of Guava ViaCount reagent was used for dilution. Additionally, 200 μL of the cell suspension was transferred to a 1.5-mL microcentrifuge tube, centrifuged at 1000 RPM for 5 min (Thermo Scientific, Model Legend Micro 21R), and re-suspended in 200 μL media to wash the cells. From the washed cell suspension, two aliquots of 25 μL each were used for cell counting by Guava and two aliquots of 25 μL each were used for Gd content analysis by ICP-MS. For the condition without GO co-incubation, the same procedures were followed except GO was replaced by Milli-Q water.
To create the cellular phantoms in agarose, a 1% media-agarose was prepared by mixing media and 2% low melting-point agarose (Life Technologies, Carlsbad, Calif.) in equal parts. At 7 T, the media-agrose has a T1 of 2952±152 ms and a T2 of 96±1 ms. In a 4 mL 15×45 mm glass vial, 2 mL of media-agarose was gelled at room temperature around a 5 mm OD NMR tube that was later removed to create a cylindrical bore. To fill the bore, the suspension of labeled cells was centrifuged at 1000 RPM for 5 minutes. After removing the supernatant, the cell pellet was re-suspended in media-agarose and further diluted to densities of 10,000, 5,000, 2,000, 500, and 100 cells/μL. 300 μL of each cell suspension was used to fill the bores in the 4 mL vials. After filling, the vials were cooled to 4° C. for 20 minutes to solidify the suspension. Approximately 3 mL of media was added on top of the media-agarose to completely fill the vial.
T1- and T2-weighted imaging were performed on a Bruker Pharmscan 7.05 T imaging spectrometer fitted with shielded gradient coils and a RF RES 300 1H 089/023 quadrature transceiver volume coil at 25° C. (Bruker BioSpin, Billerica, Mass.). Imaging was performed using a Rapid Acquisition with Refocused Echoes (RARE) pulse sequence. For T1-weighted imaging, the imaging parameters were TR=200 ms, TE=11.7 ms, NEX=1, FOV=21×21 mm^2, slice thickness=2 mm, and matrix size=256×256. For T2-weighted HDR, the imaging parameters were TR=5000 ms, TE=100 ms, NEX=1, FOV=15×15 mm^2, slice thickness=2 mm, and matrix size=256×256. The signal intensities of the acquired images were normalized such that the blank media-agarose has the same intensity across all images. Image processing was performed using ImageJ (NIH, Bethesda, Md.). T1 and T2-weighted images were processed separately.

## Diethylenetriaminepentaacetic acid gadolinium(III) dihydrogen salt hydrate [Molecule 11]
HeLa cells [1]; 24 h, after in-plate washing by PBS, floating cells not included
  IC50: 99 mM
HeLa cells [1]; 24 h, analysis includes floating cells
  IC50: 80 mM
HeLa cells [1]; 24 h, up to 35 mM Magnevist and 250 μg/mL GO (150 nm GO)
  Cytotoxicity: No significant cytotoxicity
HeLa cells [1]; Magnevist increased to 70 mM, with GO
  Cytotoxicity: synergistic cytotoxicity
HeLa cells [2]; 35 mM Magnevist, 10 μg/mL GO
  Improvement of labeling with GO over Magnevist alone: 57%
HeLa cells [2]; GO co-incubation
  Cellular Gd(III) payload relative to Gd(III)-DNA gold nanoparticles, Gd(III)-labeled polymer-liposomes, gadonanotubes and gadofullerenols: 30-50 fold
  Increase of MR sensitivity for labeled cells compared to Magnevist alone: ~10 fold
HeLa cells [2]; Magnevist alone (35 mM), without GO
  Labeling achieved in the imaging study: 30 fmol Gd/cell
HeLa cells [2]; imaging study, before centrifugation
  Enhancement by GO: 2.2 ×
HeLa cells [2]; with GO co-incubation (10 μg/mL), 35 mM Magnevist
  Labeling achieved in the imaging study: 47 fmol Gd/cell
HeLa cells [2]; with GO co-incubation (150 nm GO)
  Sensitivity for labeled cells on T1-weighted MRI: 500 cells/μL
HeLa cells [2]; with GO, before centrifugation
  Loading in the imaging study: 153 fmol/cell
HeLa cells [2]; without GO
  Sensitivity for labeled cells on T1-weighted MRI: 5000 cells/μL
HeLa cells [2]; without GO, before centrifugation
  Loading in the imaging study: 69 fmol/cell
